Test results as given in ChEMBL document CHEMBL3137667, “[Drug-induced liver injury; fourteenth updated edition of the bibliographic database of liver injuries and related drugs]” (Gastroenterol Clin Biol, 2004).

Columns and labels:
[1] = human
[2] = human; remark: listed apart in the source
[3] = human, serum, 4383 h
[4] = human; remark: listed apart in the source
[5] = human; remark: listed apart in the source
[6] = human; remark: listed apart in the source
[7] = human, serum
[8] = Highest frequency of moderate liver toxicity observed during clinical trials, expressed as a percentage. [column '% BIOL' in source]; conditions: human
[9] = human; remark: listed apart in the source
[10] = human; remark: listed apart in the source
[11] = Highest frequency of acute liver toxicity observed during clinical trials, expressed as a percentage. [column '% AIGUE' in source]; conditions: human
[12] = human; remark: listed apart in the source
[13] = human, serum; remark: listed apart in the source
[14] = human; remark: listed apart in the source
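For Hepatotoxicity (association with vascular disease) in this document: count of indexed literature references reporting vascular liver injury in humans, e.g. peliosis hepatitis, hepatic veno-occlusive disease or Budd-Chiari syndrome.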
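For Hepatotoxicity (benign tumour) in this document: value is a count of indexed literature references citing a benign tumour confirmed by histopathology.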
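For Hepatotoxicity (choleostasis) in this document: human cholestatic liver injury, shown by histopathology or by peak ALT or AST elevation over alkaline phosphatase ratio below 2, value counts indexed literature reports.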
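For Hepatotoxicity (chronic liver disease) in this document: chronic liver injury confirmed by histopathology or persistently raised serum aminotransferase activity beyond 6 months, value given as the count of indexed literature references.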
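For Hepatotoxicity (cirrhosis) in this document: value is a count of indexed literature references reporting cirrhosis confirmed by histopathology.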
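For Hepatotoxicity (cytolytic) in this document: human cytolytic liver injury, shown by histopathology or by a ratio above 5 of peak ALT or AST elevation to alkaline phosphatase elevation, value counts indexed references.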
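For Hepatotoxicity (granulomatous hepatitis) in this document: value is a count of indexed literature references reporting granulomatous liver disease confirmed by histopathology.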
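For Hepatotoxicity (malignant tumour) in this document: malignant tumour confirmed by histopathology, value gives the count of indexed literature references reporting it.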
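For Hepatotoxicity (severe hepatitis) in this document: human clinical data: severe hepatitis, meaning potentially life-threatening liver failure or clinically observed cases, the value counts how many indexed literature references report it.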
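For Hepatotoxicity (steatosis) in this document: steatosis confirmed by histopathology, value is the count of indexed references.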

| Compound | Hepatotoxicity (malignant tumour) [1] | Hepatotoxicity (cytolytic) [2] | Hepatotoxicity (chronic liver disease) [3] | Hepatotoxicity (benign tumour) [4] | Hepatotoxicity (severe hepatitis) [5] | Hepatotoxicity (choleostasis) [6] | Hepatotoxicity (moderate) [7] | Hepatotoxicity (moderate) [8] | Hepatotoxicity (cirrhosis) [9] | Hepatotoxicity (steatosis) [10] | Hepatotoxicity (acute) [11] | Hepatotoxicity (association with vascular disease) [12] | Hepatotoxicity (acute) [13] | Hepatotoxicity (granulomatous hepatitis) [14] | Hepatotoxicity (cytolytic) ([2]; Liver) | Hepatotoxicity (severe hepatitis) ([5]; Liver) | Hepatotoxicity (choleostasis) ([6]; Liver) | Hepatotoxicity (moderate) ([8]; Liver) | Hepatotoxicity (acute) ([11]; Liver) | Hepatotoxicity (granulomatous hepatitis) ([14]; Liver) |
| --- | --- | --- | --- | --- | --- | --- | --- | --- | --- | --- | --- | --- | --- | --- | --- | --- | --- | --- | --- | --- |
| Nc1ncc2ncn(COCCO)c2n1 [DESCICLOVIR] | 0 | 0 | 0 | 0 | 0 | 0 | 1 | 15.4% | 0 | 0 | 0% | 0 | 0 | 0 |  |  |  |  |  |  |
| CCOC(OCC)C(=O)OCC(=O)[C@]1(O)Cc2c(O)c3c(c(O)c2[C@@H](O[C@H]2C[C@H](N)[C@H](O)[C@H](C)O2)C1)C(=O)c1c(OC)cccc1C3=O [DETORUBICIN] | 0 | 0 | 0 | 0 | 0 | 0 | 2 | 9.4% | 0 | 0 | 0% | 0 | 0 | 0 |  |  |  |  |  |  |
| N[C@H](Cc1cc(I)c(Oc2cc(I)c(O)c(I)c2)c(I)c1)C(=O)O [DEXTROTHYROXINE] | 0 | 0 | 0 | 0 | 0 | 0 | 1 | 40.2% | 0 | 0 | 0% | 0 | 0 | 0 |  |  |  |  |  |  |
| CC(=O)Nc1c(I)c(NC(C)=O)c(I)c(C(=O)O)c1I [DIATRIZOIC ACID] | 0 | 0 | 0 | 0 | 0 | 0 | 1 | 0% | 0 | 0 | 0% | 0 | 0 | 0 |  |  |  |  |  |  |
| CCOC(=O)NC1=C(N2CC2)C(=O)C(NC(=O)OCC)=C(N2CC2)C1=O [DIAZIQUONE] | 0 | 0 | 0 | 0 | 0 | 0 | 5 | 50% | 0 | 0 | 0% | 0 | 0 | 0 |  |  |  |  |  |  |
| Oc1ccc(Cl)cc1Cc1cc(Cl)ccc1O [DICHLOROPHEN] | 0 | 2 | 0 | 0 | 0 | 1 | 0 | 0% | 0 | 0 | 0% | 0 | 2 | 0 |  |  |  |  |  |  |
| CCN(CC)C(=O)N1CCN(C)CC1 [DIETHYLCARBAMAZINE] | 0 | 0 | 0 | 0 | 0 | 0 | 1 | 0% | 0 | 0 | 0% | 0 | 0 | 0 |  |  |  |  |  |  |
| C[C@H]1O[C@@H](O[C@H]2[C@@H](O)C[C@H](O[C@H]3[C@@H](O)C[C@H](O[C@H]4CC[C@@]5(C)[C@H](CC[C@@H]6[C@@H]5C[C@@H](O)[C@]5(C)[C@@H](C7=CC(=O)OC7)CC[C@]65O)C4)O[C@@H]3C)O[C@@H]2C)C[C@H](O)[C@@H]1O [DIGOXIN] | 0 | 0 | 0 | 0 | 0 | 0 | 1 | 8.3% | 0 | 0 | 0% | 0 | 0 | 0 |  |  |  |  |  |  |
| CN(C)CCCN1c2ccccc2C(C)(C)c2ccccc21 [DIMETACRINE] | 0 | 0 | 0 | 0 | 0 | 0 | 1 | 0% | 0 | 0 | 0% | 0 | 0 | 0 |  |  |  |  |  |  |
| CN(C)CCOC(c1ccccc1)c1ccccc1 [DIPHENHYDRAMINE] | 0 |  | 0 | 0 |  |  | 1 |  | 0 | 0 |  | 0 | 0 |  | 0 | 0 | 0 | 1.4% | 0% | 0 |
| OC(CCCN1CCCCC1)(c1ccccc1)c1ccccc1 [DIPHENIDOL] | 0 | 0 | 0 | 0 | 0 | 0 | 0 | 0% | 0 | 0 | 0% | 0 | 1 | 0 |  |  |  |  |  |  |
| CCC(C)(C)NCC(O)COc1ccccc1C(=O)CCc1ccccc1 (stereo not drawn) [DIPRAFENONE] | 0 | 0 | 0 | 0 | 0 | 1 | 3 | 3.7% | 0 | 0 | 1.6% | 0 | 1 | 0 |  |  |  |  |  |  |
